Measurements from US10155259B2 (Merck Sharp & Dohme B.V., priority 2011, dated 2018).
pIC50: −log10 of the molar value.

target: T1, human FSH receptor (Homo sapiens, UniProt P23945); experiment: Antagonistic activity of compounds at the human FSH receptor expressed in CHO cells (CRE-luciferase reporter); assay type: cell-based; conditions: CHO cells stably transfected with human FSH receptor and CRE/luciferase reporter; together with 49 μM recFSH; 4 hours incubation; 1% DMSO; read-out: IC50 (concentration of test compound causing half-maximal inhibition of the maximally attainable inhibition of the luciferase stimulation)
T1 construct: expressed in transfected cells; host or cells: CHO cells, stably transfected; cotransfected with CRE-luciferase reporter
T1 sequence (P23945 18-695): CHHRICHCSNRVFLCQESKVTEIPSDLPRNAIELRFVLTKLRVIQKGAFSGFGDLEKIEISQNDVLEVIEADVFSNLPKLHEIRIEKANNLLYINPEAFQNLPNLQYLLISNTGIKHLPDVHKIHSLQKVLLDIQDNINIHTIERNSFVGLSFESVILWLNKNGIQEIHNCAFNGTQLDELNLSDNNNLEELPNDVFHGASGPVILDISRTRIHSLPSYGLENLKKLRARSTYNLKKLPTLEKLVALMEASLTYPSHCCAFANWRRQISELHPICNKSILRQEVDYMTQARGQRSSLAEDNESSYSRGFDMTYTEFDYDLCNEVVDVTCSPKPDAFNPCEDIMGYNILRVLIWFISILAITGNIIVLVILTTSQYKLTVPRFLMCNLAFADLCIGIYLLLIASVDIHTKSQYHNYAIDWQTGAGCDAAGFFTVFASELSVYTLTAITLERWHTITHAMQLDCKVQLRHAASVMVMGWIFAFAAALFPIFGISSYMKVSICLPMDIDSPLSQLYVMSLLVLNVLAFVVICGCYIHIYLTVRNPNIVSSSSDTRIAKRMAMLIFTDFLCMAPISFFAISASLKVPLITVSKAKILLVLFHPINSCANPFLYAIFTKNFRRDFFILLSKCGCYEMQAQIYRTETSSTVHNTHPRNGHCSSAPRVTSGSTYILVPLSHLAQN
Experimental: Antagonistic Activity of Compounds at the Human FSH Receptor Expressed in CHO Cells
Antagonistic activity of the compounds at the human FSH receptor was determined in Chinese Hamster Ovary (CHO) cells stably transfected with the human FSH receptor and cotransfected with a cAMP responsive element (CRE)/promotor directing the expression of a firefly luciferase reporter gene. Binding of the compounds to the Gs protein-coupled FSH receptor will result in an increase of cAMP, which in turn will induce an increased transactivation of the luciferase reporter. The cells (7,500 cells/well of a 384 well plate) were incubated in Dulbecco' minimal essential F12 modified medium (Invitrogen), supplemented with 1 μg/ml bovine insulin, 5 μg/ml human apo-transferrin, 100 U/ml penicillin G and 100 μg/ml streptomycin with the test compounds (concentration between 0.316 nM and 10.0 μM) in duplicate together with […] (which, at this concentration in the absence of test compound, induces 80% of the maximal luciferase stimulation) in a humidified atmosphere (95%) at 5-7% CO2 and 37° C. The final concentration of DMSO was 1%. After 4 hours of incubation, plates were allowed to adjust to room temperature for 1 hour. Then, SteadyLite (PerkinElmer) solution was added to the wells and cells were allowed to lyse for at least 1 hour at room temperature. Subsequently, luciferase activity was measured in a luminescence counter. The signal is expressed as counts per second (cps). The IC50 (concentration of test compound causing half-maximal (50%) inhibition of the maximally attainable inhibition of the luciferase stimulation by the compound) and efficacy of the compounds were determined using the software program MathIQ (version 2.3, ID Business Solutions Limited).

Compared with `COc1cc2c(cc1OCCN(C)C)-c1cc(C(=O)N[C@@H](CO)Cc3c[nH]c4ccccc34)c(-c3cccc(F)c3)n1CC2` [Example 39, (R)-9-(2-(dimethylamino)ethoxy)-3-(3-fluorophenyl)-N-(1-hydroxy-3-(1H-indol-3-yl)propan-2-yl)-8-methoxy-5,6-dihydropyrrolo[2,1-a]isoquinoline-2-carboxamide], `COc1cc2c(cc1OCCO)-c1cc(C(=O)N[C@@H](CO)Cc3c[nH]c4ccccc34)c(-c3cccc(F)c3)n1CC2` [Example 38, (R)-3-(3-fluorophenyl)-N-(1-hydroxy-3-(1H-indol-3-yl)propan-2-yl)-9-(2-hydroxyethoxy)-8-methoxy-5,6-dihydropyrrolo[2,1-a]isoquinoline-2-carboxamide] is higher in pIC50: 6.00 to 7.00 for the first, over 7.00 for the second. The second is the more potent here.

`COc1cc2c(c(OC)c1OC)CCn1c-2cc(C(=O)N[C@@H](CO)Cc2c[nH]c3ccccc23)c1-c1cccc(F)c1` [Example 62, (R)-3-(3-fluorophenyl)-N-(1-hydroxy-3-(1H-indol-3-yl)propan-2-yl)-7,8,9-trimethoxy-5,6-dihydropyrrolo[2,1-a]isoquinoline-2-carboxamide] and `COCCOc1cc2c(cc1OC)CCn1c-2cc(C(=O)N[C@@H](CO)Cc2c[nH]c3ccccc23)c1-c1cccc(F)c1` [Example 33, (R)-3-(3-fluorophenyl)-N-(1-hydroxy-3-(1H-indol-3-yl)propan-2-yl)-8-methoxy-9-(2-methoxyethoxy)-5,6-dihydropyrrolo[2,1-a]isoquinoline-2-carboxamide] cannot be ordered by pIC50: over 7.00 for the first, over 7.00 for the second.

`COc1cc2c(cc1OC)-c1nc(C(=O)N[C@@H](CO)Cc3c[nH]c4ccccc34)c(-c3ccccc3F)n1CC2` [Example 67, 3-(2-fluorophenyl)-N—((R)-1-hydroxy-3-(1H-indol-3-yl)propan-2-yl)-8,9-dimethoxy-5,6-dihydroimidazo[2,1-a]isoquinoline-2-carboxamide] and `COc1cc2c(cc1OC)-c1nc(C(=O)N[C@@H](CO)Cc3c[nH]c4ccccc34)c(-c3ccccc3OC)n1CC2` [Example 68, N—((R)-1-hydroxy-3-(1H-indol-3-yl)propan-2-yl)-8,9-dimethoxy-3-(2-methoxyphenyl)-5,6-dihydroimidazo[2,1-a]isoquinoline-2-carboxamide] fall in the same range of pIC50: 6.00 to 7.00 for the first, 6.00 to 7.00 for the second.

`COc1cc2c(cc1OC)-c1cc(C(=O)N[C@@H](CO)Cc3c[nH]c4ccccc34)c(-c3cccs3)n1CC2` [Example 7, (R)—N-(1-hydroxy-3-(1H-indol-3-yl)propan-2-yl)-8,9-dimethoxy-3-(thiophen-2-yl)-5,6-dihydropyrrolo[2,1-a]isoquinoline-2-carboxamide] and `COc1cc2c(cc1OC)-c1cc(C(=O)N[C@@H](CO)Cc3c[nH]c4ccccc34)c(-c3ccccc3)n1CC2` [Example 5, (R)—N-(1-hydroxy-3-(1H-indol-3-yl)propan-2-yl)-8,9-dimethoxy-3-phenyl-5,6-dihydropyrrolo[2,1-a]isoquinoline-2-carboxamide] cannot be ordered by pIC50: over 7.00 for the first, over 7.00 for the second.

`COc1cc2c(cc1-c1cccnc1OC)-c1cc(C(=O)N[C@@H](CO)Cc3c[nH]c4ccccc34)c(-c3cccs3)n1CC2` [Example 54, N—((R)-1-hydroxy-3-(1H-indol-3-yl)propan-2-yl)-8-methoxy-9-(2-methoxypyridin-3-yl)-3-(thiophen-2-yl)-5,6-dihydropyrrolo[2,1-a]isoquinoline-2-carboxamide] and `COc1cc(-c2cc3c(cc2OC)CCn2c-3cc(C(=O)N[C@@H](CO)Cc3c[nH]c4ccccc34)c2-c2cccs2)ccn1` [Example 57, (R)—N-(1-hydroxy-3-(1H-indol-3-yl)propan-2-yl)-8-methoxy-9-(2-methoxypyridin-4-yl)-3-(thiophen-2-yl)-5,6-dihydropyrrolo[2,1-a]isoquinoline-2-carboxamide] cannot be ordered by pIC50: over 7.00 for the first, over 7.00 for the second.

`COc1cc2c(cc1OC(C)C)-c1cc(C(=O)N[C@@H](CO)Cc3c[nH]c4ccccc34)c(CC(C)C)n1CC2` [Example 22, (R)—N-(1-hydroxy-3-(1H-indol-3-yl)propan-2-yl)-3-isobutyl-9-isopropoxy-8-methoxy-5,6-dihydropyrrolo[2,1-a]isoquinoline-2-carboxamide] and `CCCC(=O)c1c(C(=O)N[C@@H](CO)Cc2c[nH]c3ccccc23)cc2n1CCc1cc(OC)c(OC(C)C)cc1-2` [Example 26, (R)-3-butyryl-N-(1-hydroxy-3-(1H-indol-3-yl)propan-2-yl)-9-isopropoxy-8-methoxy-5,6-dihydropyrrolo[2,1-a]isoquinoline-2-carboxamide] cannot be ordered by pIC50: over 7.00 for the first, over 7.00 for the second.

`COc1cc2c(cc1-c1cccnc1)-c1cc(C(=O)N[C@@H](CO)Cc3c[nH]c4ccccc34)c(-c3cccc(F)c3)n1CC2` [Example 42, (R)-3-(3-fluorophenyl)-N-(1-hydroxy-3-(1H-indol-3-yl)propan-2-yl)-8-methoxy-9-(pyridin-3-yl)-5,6-dihydropyrrolo[2,1-a]isoquinoline-2-carboxamide] and `COc1cc2c(cc1-c1cnn(C)c1)-c1cc(C(=O)N[C@@H](CO)Cc3c[nH]c4ccccc34)c(-c3cccc(F)c3)n1CC2` [Example 52, (R)-3-(3-fluorophenyl)-N-(1-hydroxy-3-(1H-indol-3-yl)propan-2-yl)-8-methoxy-9-(1-methyl-1H-pyrazol-4-yl)-5,6-dihydropyrrolo[2,1-a]isoquinoline-2-carboxamide] cannot be ordered by pIC50: over 7.00 for the first, over 7.00 for the second.

First: COc1cc2c(cc1OC)-c1c(C)c(C(=O)N[C@@H](CO)Cc3c[nH]c4ccccc34)c(-c3ccccc3)n1CC2 [Example 1, (R)—N-(1-hydroxy-3-(1H-indol-3-yl)propan-2-yl)-8,9-dimethoxy-1-methyl-3-phenyl-5,6-dihydropyrrolo[2,1-a]isoquinoline-2-carboxamide]
Second: COc1ccc(-c2c(C(=O)N[C@@H](CO)Cc3c[nH]c4ccccc34)cc3n2CCc2cc(OC)c(OC)cc2-3)cc1 [Example 8, (R)—N-(1-hydroxy-3-(1H-indol-3-yl)propan-2-yl)-8,9-dimethoxy-3-(4-methoxyphenyl)-5,6-dihydropyrrolo[2,1-a]isoquinoline-2-carboxamide]
The pIC50 of the first is lower: 6.00 to 7.00 for the first, over 7.00 for the second. The second is the more potent here.

`COc1cc2c(cc1C(C)C(C)C)-c1cc(C(=O)N[C@@H](CO)Cc3c[nH]c4ccccc34)c(-c3cccc(F)c3)n1CC2` (stereo partly drawn) [Example 44, 3-(3-fluorophenyl)-N—((R)-1-hydroxy-3-(1H-indol-3-yl)propan-2-yl)-8-methoxy-9-(3-methylbutan-2-yl)-5,6-dihydropyrrolo[2,1-a]isoquinoline-2-carboxamide] and `CCCC(C)Oc1cc2c(cc1OC)CCn1c-2cc(C(=O)N[C@@H](CO)Cc2c[nH]c3ccccc23)c1-c1cccc(F)c1` (stereo partly drawn) [Example 37, 3-(3-fluorophenyl)-N—((R)-1-hydroxy-3-(1H-indol-3-yl)propan-2-yl)-8-methoxy-9-(pentan-2-yloxy)-5,6-dihydropyrrolo[2,1-a]isoquinoline-2-carboxamide] cannot be ordered by pIC50: over 7.00 for the first, over 7.00 for the second.

First: COc1cc2c(c(OC)c1OC)-c1cc(C(=O)N[C@@H](CO)Cc3c[nH]c4ccccc34)c(-c3cccs3)n1CC2 [Example 64, (R)—N-(1-hydroxy-3-(1H-indol-3-yl)propan-2-yl)-8,9,10-trimethoxy-3-(thiophen-2-yl)-5,6-dihydropyrrolo[2,1-a]isoquinoline-2-carboxamide]
Second: COc1cc2c(cc1OC)-c1cc(C(=O)N[C@@H](CO)Cc3c[nH]c4ccccc34)c(-c3cc(C)cc(C)c3)n1CC2 [Example 4, (R)-3-(3,5-dimethylphenyl)-N-(1-hydroxy-3-(1H-indol-3-yl)propan-2-yl)-8,9-dimethoxy-5,6-dihydropyrrolo[2,1-a]isoquinoline-2-carboxamide]
The pIC50 of the first is higher: over 7.00 for the first, 6.00 to 7.00 for the second.

With `C=CCOc1cc2c(cc1OC)CCn1c-2cc(C(=O)N[C@@H](CO)Cc2c[nH]c3ccccc23)c1-c1cccc(F)c1` [Example 32, (R)-9-(allyloxy)-3-(3-fluorophenyl)-N-(1-hydroxy-3-(1H-indol-3-yl)propan-2-yl)-8-methoxy-5,6-dihydropyrrolo[2,1-a]isoquinoline-2-carboxamide] the pIC50 was 6.00 to 7.00.
